These results are taken from US8927709B2, “Hepatitis C virus inhibitors” (Enanta Pharmaceuticals, Inc., priority 2009, dated 2015).

In the test the test system is HCV 1b genotype replicon. Briefly: HCV genotype-1b replicon assay (qRT-PCR or luciferase). Particulars: Hepatitis C virus, HCV 1b replicon cell lines (SGR 11-7 or Huh-luc/neo-ET), a/b entries tested as mixture of the two compounds, read-out: Genotype-1b replicon EC50 Range. It is filed as cell-based. The text has this: HCV replicon cell lines (kindly provided by R. Bartenschlager) isolated from colonies as described by Lohman et. al. (Lohman et al. (1999) Science 285: 110-113, expressly incorporated by reference in its entirety) and used for all experiments. The HCV replicon has the nucleic acid sequence set forth in EMBL Accession No.: AJ242651, the coding sequence of which is from nucleotides 1801 to 8406.
The coding sequence of the published HCV replicon was synthesized and subsequently assembled in a modified plasmid pBR322 (Promega, Madison, Wis.) using standard molecular biology techniques. […]
EC50 values of single agent compounds and combinations were determined by HCV RNA detection using quantitative RT-PCR, according to the manufacturer's instructions, with a TAQMAN® One-Step RT-PCR Master Mix Reagents Kit (Cat# AB 4309169, Applied Biosystems) on an ABI Model 7500 thermocycler. The TaqMan primers used for detecting and quantifying HCV RNA were obtained from Integrated DNA Technologies. HCV RNA was normalized to GAPDH RNA levels in drug-treated cells, which was detected and quantified using the Human GAPDH Endogenous Control Mix (Applied Biosystems, AB 4310884E). […] Chemical agent cytotoxicity was evaluated using an MTS assay according to the manufacturer's directions (Promega). […]

Bounds are passed on as bounds.

For `COC(=O)N[C@H](C(=O)N1CCC(c2nc(-c3ccc(-c4ccc(-c5c[nH]c([C@@H]6CCCN6C(=O)[C@@H](NC(=O)OC)C(C)C)n5)cc4)cc3)c[nH]2)C1)C(C)C` (some centres unmarked) [Example 345], the EC50 was below 1 nM. As to `COC(=O)N[C@H](C(=O)N1CCC(c2nc3cc(-c4ccc(-c5c[nH]c([C@@H]6CCCN6C(=O)[C@@H](NC(=O)OC)C(C)C)n5)cc4)ccc3[nH]2)C1)C(C)C` (some centres unmarked) [Example 343], the EC50 was 1 to 10 nM.

Usually EC50 stands for the concentration at which the effect is half-maximal.
